Measurements published in ChEMBL document CHEMBL4177573 (Bioorg Med Chem, 2017).
Activity calls are given as the source filed them. The calls are words filed in the database; no cut-off is given here.

Key:
[1] = tested on: Mus musculus; assay: Antiobesity activity in DIO C57BL/6J mouse assessed as reduction in liver weight at 0.003 to 0.03 mg/kg, sc for 2 weeks dosed as continuous administration by infusion of osmotic pumps relative to untreated control; type: functional, organism-based
[2] = tested on: Mus musculus; assay: Anorectic activity in C57BL/6J mouse assessed as inhibition of food intake at 0.3 mg/kg/day, sc dosed as […] and measured after 24 hrs; type: functional
[3] = tested on: Mus musculus; assay: Anorectic activity in DIO C57BL/6J mouse assessed as reduction in cumulative food intake at 0.03 mg/kg, sc for 2 weeks dosed as continuous administration by infusion of osmotic pumps relative to untreated control; type: functional, organism-based
[4] = MRT in C57BL/6J mouse at 1 mg/kg, iv measured during 5 mins to 24 hrs by LC/MS/MS method; type: ADME, organism-based; details: in vivo
[5] = target: T1, Neuropeptide Y receptor type 2 (Homo sapiens, UniProt P49146); assay: Displacement of [125I]-PYY from human neuropeptide Y2 receptor expressed in CHO cell membranes incubated for 60 mins by TopCount based method
T1 sequence (P49146 whole entry): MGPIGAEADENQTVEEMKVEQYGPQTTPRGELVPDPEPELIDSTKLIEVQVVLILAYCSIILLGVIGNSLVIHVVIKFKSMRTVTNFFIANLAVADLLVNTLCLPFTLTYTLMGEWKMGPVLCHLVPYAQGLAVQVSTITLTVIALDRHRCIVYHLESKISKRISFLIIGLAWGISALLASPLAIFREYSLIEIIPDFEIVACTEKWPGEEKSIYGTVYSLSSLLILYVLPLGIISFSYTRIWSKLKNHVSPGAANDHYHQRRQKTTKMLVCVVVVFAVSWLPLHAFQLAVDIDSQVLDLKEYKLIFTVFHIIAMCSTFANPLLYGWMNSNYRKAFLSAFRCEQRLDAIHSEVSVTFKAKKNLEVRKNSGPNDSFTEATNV

[6] = tested on: Mus musculus; assay: Drug level in C57BL/6J mouse at 1 mg/kg, iv measured during 5 mins to 24 hrs by LC/MS/MS method; type: ADME, organism-based; details: in vivo, read-out: Drug uptake
[7] = tested on: Mus musculus; assay: Anorectic activity in C57BL/6J mouse assessed as inhibition of food intake at 0.03 to 1 mg/kg/day, sc for 3 days dosed as continuous administration by infusion using osmotic pump; type: functional, organism-based
[8] = Cmax in C57BL/6J mouse at 1 mg/kg, sc measured during 5 mins to 24 hrs by LC/MS/MS method; type: ADME, organism-based; parameters: dose 1 mg/kg, route subcutaneous; details: in vivo
[9] = Bioavailability in C57BL/6J mouse at 1 mg/kg, sc measured during 5 mins to 24 hrs by LC/MS/MS method; type: ADME, organism-based; details: in vivo
[10] = target: Neuropeptide Y receptor type 4 (Rattus norvegicus, UniProt Q63447); assay: Agonist activity at rat neuropeptide Y4 receptor by [35S]GTPgammaS binding assay; type: functional
[11] = tested on: Mus musculus; assay: Antiobesity activity in DIO C57BL/6J mouse assessed as reduction in mesenteric fat weight at 0.003 to 0.03 mg/kg, sc for 2 weeks dosed as continuous administration by infusion of osmotic pumps relative to untreated control; type: functional, organism-based
[12] = tested on: Mus musculus; assay: Antiobesity activity in DIO C57BL/6J mouse assessed as reduction in body weight at 0.01 mg/kg, sc for 2 weeks dosed as continuous administration by infusion of osmotic pumps; type: functional; details: 336 h
[13] = Volume of distribution at steady state in C57BL/6J mouse at 1 mg/kg, iv measured during 5 mins to 24 hrs by LC/MS/MS method; type: ADME, organism-based; details: in vivo, read-out: Vdss
[14] = Total clearance in C57BL/6J mouse at 1 mg/kg, iv measured during 5 mins to 24 hrs by LC/MS/MS method; type: ADME, organism-based; details: in vivo
[15] = target: T2, Neuropeptide Y receptor type 2 (Rattus norvegicus, UniProt Q9ERC0); assay: Agonist activity at rat neuropeptide Y2 receptor by [35S]GTPgammaS binding assay; type: functional
T2 sequence (Q9ERC0 whole entry): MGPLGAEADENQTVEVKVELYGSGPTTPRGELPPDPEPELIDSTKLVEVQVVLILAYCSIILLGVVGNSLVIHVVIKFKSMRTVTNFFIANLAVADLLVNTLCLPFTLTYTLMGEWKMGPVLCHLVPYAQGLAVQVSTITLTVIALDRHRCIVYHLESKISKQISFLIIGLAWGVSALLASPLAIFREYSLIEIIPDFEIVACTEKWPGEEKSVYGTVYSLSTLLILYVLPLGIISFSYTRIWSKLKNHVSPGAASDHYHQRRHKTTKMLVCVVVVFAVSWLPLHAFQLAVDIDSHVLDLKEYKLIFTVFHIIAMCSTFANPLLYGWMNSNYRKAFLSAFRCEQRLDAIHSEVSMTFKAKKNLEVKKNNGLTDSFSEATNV

[16] = tested on: Mus musculus; assay: Anorectic activity in C57BL/6J mouse assessed as inhibition of food intake at 0.3 mg/kg/day, sc dosed as […] and measured after 12 hrs; type: functional
[17] = tested on: Mus musculus; assay: Anorectic activity in overnight fasted Y2R-/- C57BL/6J mouse assessed as inhibition of food intake at 10 nmol/kg, sc followed by re-feeding post dose and measured for 2 hrs; type: functional, organism-based
[18] = tested on: Mus musculus; assay: Antiobesity activity in DIO C57BL/6J mouse assessed as reduction in body weight at 0.003 to 0.03 mg/kg, sc for 2 weeks dosed as continuous administration by infusion of osmotic pumps relative to untreated control; type: functional, organism-based
[19] = tested on: Mus musculus; assay: Antiobesity activity in DIO C57BL/6J mouse assessed as reduction in body weight at 0.03 mg/kg, sc for 2 weeks dosed as continuous administration by infusion of osmotic pumps relative to untreated control; type: functional; details: 336 h
[20] = tested on: Mus musculus; assay: Anorectic activity in DIO C57BL/6J mouse assessed as reduction in cumulative food intake at 0.01 mg/kg, sc for 2 weeks dosed as continuous administration by infusion of osmotic pumps relative to untreated control; type: functional, organism-based
[21] = AUC (0 to 24 hrs) in C57BL/6J mouse at 1 mg/kg, sc measured during 5 mins to 24 hrs by LC/MS/MS method; type: ADME, organism-based; parameters: time < 24 hr, dose 1 mg/kg, route subcutaneous; details: in vivo
[22] = tested on: Mus musculus; assay: Antiobesity activity in DIO C57BL/6J mouse assessed as reduction in body weight at 1 mg/kg, sc […] for 2 weeks dosed by infusion of osmotic pumps; type: functional; details: 336 h
[23] = tested on: Mus musculus; assay: Anorectic activity in DIO C57BL/6J mouse assessed as reduction in cumulative food intake at 0.03 mg/kg, sc for 2 weeks dosed as continuous administration by infusion of osmotic pumps relative to 0.3 mg/kg/day, sc PYY(3-36); type: functional
[24] = tested on: Mus musculus; assay: Anorectic activity in overnight fasted C57BL/6J mouse assessed as inhibition of food intake at 10 nmol/kg, sc followed by re-feeding post dose and measured for 2 hrs; type: functional, organism-based
[25] = tested on: Mus musculus; assay: Anorectic activity in C57BL/6J mouse assessed as inhibition of food intake at 0.03 mg/kg/day, sc for 3 days dosed as continuous administration by infusion using osmotic pump; type: functional; details: 72 h
[26] = MRT in C57BL/6J mouse at 1 mg/kg, sc measured during 5 mins to 24 hrs by LC/MS/MS method; type: ADME, organism-based; details: in vivo
[27] = target: T1, Neuropeptide Y receptor type 2; assay: Agonist activity at human neuropeptide Y2 receptor expressed in CHO cell membranes assessed as stimulation of [35S]GTPgammaS binding incubated for 120 mins by liquid scintillation counting method; type: functional

Sequence of Neuropeptide Y receptor type 4 (Q63447 whole entry, the tested form may be a part): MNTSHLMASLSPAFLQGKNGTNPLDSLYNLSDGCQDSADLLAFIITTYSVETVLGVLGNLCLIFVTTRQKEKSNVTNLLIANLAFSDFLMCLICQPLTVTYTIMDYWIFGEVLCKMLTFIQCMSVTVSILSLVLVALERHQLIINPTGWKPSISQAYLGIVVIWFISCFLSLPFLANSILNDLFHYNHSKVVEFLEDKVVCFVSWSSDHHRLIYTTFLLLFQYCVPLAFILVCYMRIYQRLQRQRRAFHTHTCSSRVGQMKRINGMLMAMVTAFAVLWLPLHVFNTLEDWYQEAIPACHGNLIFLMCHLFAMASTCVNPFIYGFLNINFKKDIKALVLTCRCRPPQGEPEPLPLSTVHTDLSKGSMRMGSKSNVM

For `CC[C@](C)(NC(=O)[C@H]1C[C@H](O)CN1C(=O)[C@H](CO)NC(=O)c1c[nH]cn1)C(=O)N[C@@H](Cc1ccncc1)C(=O)N[C@@H](CC1CCCCC1)C(=O)N[C@@H](CC(C)(C)C)C(=O)N[C@@H](CC(N)=O)C(=O)N[C@@H](CCCCN)C(=O)NC(C)(C)C(=O)N[C@H](C(=O)N[C@@H](CCCNC(=N)N)C(=O)N[C@@H](CCC(N)=O)C(=O)N[C@@H](CCCNC(=N)N)C(=O)N[C@@H](CC1CCCCC1)C(N)=O)[C@@H](C)O`, the Activity [1] was “Active”, the inhibition in vivo at 0.3 mg/kg/day [2] was 22% and the Activity [3] was “Active”. For the same compound, the MRT [4] was 21 min, the IC50 [5] was 0.31 nM and the concentration [6] was 2060 nM. For the same compound, the Activity [7] was “Dose-dependent effect”, the Cmax [8] was 452 nM and the bioavailability [9] was 60.2%. The EC50 [10] was greater than 1000 nM, the Activity [11] was “Active” and the inhibition in vivo at 0.01 mg/kg [12] was 8.9%. For the same compound, the Vd [13] was 0.293 L/kg, the clearance [14] was 14.2 mL/min/kg and the EC50 [15] was 0.038 nM. The inhibition in vivo at 0.3 mg/kg/day [16] was 41%, the Activity [17] was “inactive” and the Activity [18] was “Dose-dependent effect”. The inhibition in vivo at 0.03 mg/kg [19] was 15.1%, the Activity [20] was “Active” and the AUC(0-t) at 24 h [21] was 0.347 µM·h. The inhibition in vivo at 1 mg/kg [22] was 7.6%, the “fold change (FC)” value [23] was 30 and the Activity [24] was “Active”. It also gave an inhibition in vivo at 0.03 mg/kg/day [25] of 52%, an MRT [26] of 33.6 min and an EC50 [27] of 0.15 nM.
